Data from patent US12521361B2, “Use of sodium octanoate in preparation of medicine for improving the efficacy of cardiopulmonary resuscitation and post-resuscitation multiple organ dysfunction” (ZHEJIANG UNIVERSITY, priority 2021, dated 2026).
Marks after values point to notes of the source that are not given here.

Assays:
Type in all cases: in vivo, domestic healthy male white pigs
[1] = tested on: model of cardiac arrest and resuscitation; experiment: Cerebral function (NDS) and brain injury biomarkers after resuscitation; details: 28.5 mg/kg i.v., P<0.05, FIG. 3
Description: (§1) • 1. Setting model conditions: 8 min of cardiac arrest and 8 min of cardiopulmonary resuscitation. • 2. Cardiac arrest method: inducing ventricular fibrillation by right ventricular electrode discharge, and observing for 8 min without intervention. • 3. […]
(§2) • 1. Changes in physiological indexes such as heart rate, blood pressure, ETCO2, CBF, rSO2, and body temperature were dynamically monitored throughout the experiment, and the survival outcomes of the animals at 4 h and 24 h were recorded. • 2. During cardiopulmonary resuscitation, the changes in CPP, ETCO2, CBF, and rSO2 were continuously monitored dynamically, and the duration of cardiopulmonary resuscitation, number of defibrillation, dosage of adrenaline, and rate of return of spontaneous circulation of various groups of animals were recorded. • 3. Before modeling and at 1 h, 2 h, and 4 h after resuscitation, the changes in cardiac function such as SV and GEF were periodically detected by using a PiCCO monitor. • 4. […] The blood plasma was frozen and stored in a −80° C. deep hypothermia freezer, and serum levels of myocardial injury biomarker cardiac troponin I (cTnI), brain injury biomarker neuron specific enolase (NSE) and S100B protein (S100B), renal and intestinal injury biomarker creatinine (Cr) and intestinal fatty acid-binding protein (iFABP) were detected by using an enzyme-linked immunosorbent assay at selected time. • 5. […]

[2] = tested on: model of cardiac arrest and resuscitation; experiment: Renal and intestinal injury biomarkers after resuscitation; details: 28.5 mg/kg i.v., P<0.05, FIG. 4
Description: as §1, §2

[3] = tested on: model of cardiac arrest and resuscitation; experiment: Cell apoptosis in heart, brain, kidney and intestine by TUNEL after resuscitation; details: at 24 h after resuscitation, 28.5 mg/kg i.v., P<0.05, FIG. 5
Description: as §1, §2

[4] = tested on: model of cardiac arrest and resuscitation; experiment: Outcomes of cardiopulmonary resuscitation and cardiac/cerebral perfusion in pig model of cardiac arrest and resuscitation
Description: (§3) • 1. All animals started fasting without water deprivation 12 h before experiment. • 2. The experimental animals were firstly intramuscularly injected with midazolam by 0.4-0.5 mg/kg for induced anesthesia, connected to an electrocardiogram monitor, then injected with propofol by 2 mg/kg through ear vein for general anesthesia, and afterwards maintained in an anesthetic state through infusing 4 mg/kg/h via the vein. • 3. Endotracheal intubation, monitoring of partial pressure of end-tidal carbon dioxide (ETCO2), and mechanical ventilation were rapidly carried out, wherein ventilation parameters were an intermittent positive pressure ventilation (IPPV) mode, with oxygen concentration of 21%, tidal volume of 10 ml/kg, and positive end-expiratory pressure of 0 mmHg, and ETCO2 was maintained in a normal physiological range of 35-40 mmHg by adjusting respiratory frequency. • 4. Right femoral artery and vein were exposed by operation, and Swan-Ganz catheters were respectively disposed into thoracic aorta and right atrium, wherein the former was used to monitor aortic blood pressure and collect an arterial blood sample, and the catheter main chamber of the latter was used to monitor right atrial pressure and body temperature and collect a venous blood sample, a catheter side chamber was used to infuse a therapeutic medicine, and calculate the level of coronary perfusion pressure (CPP) according to the difference between decompression diastolic aortic and time-coincident right atrial pressures. • 5. Right external jugular vein was exposed by operation, and an inducing electrode for ventricular fibrillation was disposed into right ventricle to induce ventricular fibrillation later. • 6. Right internal jugular vein and left femoral artery were exposed by operation, a central venous catheter and a thermodilution arterial catheter were respectively disposed therein, and the two were connected to a pulse indication continuous cardiac output (PiCCO) monitor, for monitoring the changes of cardiac function including stroke volume (SV) and global ejection fraction (GEF). • 7. Right carotid artery was exposed by operation, superficial fascia was stripped off, a carotid blood flow sensor was arranged, and then a blood flow velocity ultrasonic recorder was connected to monitor the change of carotid blood flow (CBF) in real time. • 8. The animals' forehead hair was shaved off, to expose forehead skin. The forehead skin was cleaned with alcohol, and attached with a cerebral oxygen monitoring probe, and then a cerebral oxygen monitor was attached to monitor the change of regional cerebral oxygen saturation (rSO2) in real time. • 9. The body temperature of the animals was maintained at a normal temperature of about 38° C. all the time by using a temperature control blanket.
• 1. Setting model conditions: 8 min of cardiac arrest and 8 min of cardiopulmonary resuscitation. • 2. Cardiac arrest method: inducing ventricular fibrillation by right ventricular electrode discharge, and observing for 8 min without intervention. • 3. Cardiopulmonary resuscitation method: • 1) continuous manual external chest compression; • 2) mechanical ventilation was carried out by using a respirator (parameters were IPPV (intermittent positive pressure ventilation) mode, with oxygen concentration of 100%, tidal volume of 7 ml/kg, respiratory frequency of 10 times/min, and positive end-expiratory pressure of 0 mmHg); • 3) adrenalin: when cardiopulmonary resuscitation was performed for 2 min, adrenalin was given by 20 μg/kg, thereafter, the same was repeated every 4 min; • 4) defibrillation: when cardiopulmonary resuscitation was performed for 8 min, 150 J electrical defibrillation was performed once; and • 5) if spontaneous circulation was not restored, cardiopulmonary resuscitation was immediately restarted for 2 min, followed by one time of defibrillation. This cycle was repeated for 5 times or less until the resuscitation was successful or declared to be failed. • 4. […]

[5] = tested on: model of cardiac arrest and resuscitation; experiment: Cardiac function (PiCCO) and myocardial injury biomarker after resuscitation; details: 28.5 mg/kg i.v., P<0.05, FIG. 2
Description: as §3, with “Right carotid artery was exposed by operation, superficial fascia was stripped off, a carotid blood flow sensor was arranged, and then a blood flow velocity ultrasonic recorder was connected to monitor the change of carotid blood flow (CBF) in real time. • 8. The animals' forehead hair was shaved off, to expose forehead skin. The forehead skin was cleaned with alcohol, and attached with a cerebral oxygen monitoring probe, and then a cerebral oxygen monitor was attached to monitor the change of regional cerebral oxygen saturation (rSO2) in real time. • 9. The body temperature of the animals was maintained at a normal temperature of about 38° C. all the time by using a temperature control blanket.” left out

[6] = during cardiopulmonary resuscitation, almost all time points, 28.5 mg/kg i.v., P<0.05, FIG. 1
[7] = in words, 28.5 mg/kg i.v., P<0.05
[8] = pigs, sodium octanoate 28.5 mg/kg intravenously at start of CPR, n=8, P<0.05 vs CPR group
[9] = pigs, sodium octanoate 28.5 mg/kg intravenously at start of CPR, P<0.05 vs CPR group
[10] = starting 1 h after resuscitation

## CCCCCCCC(=O)[O-].[Na+] [SO, sodium octanoate]
[1]; at 1 h, 2 h, and 24 h after resuscitation
  Serum level of S100B compared with the CPR group: remarkably reduced
[1]; at 4 h and 24 h after resuscitation
  Serum level of NSE (neuron specific enolase) compared with the CPR group: remarkably reduced
[1]; at 24 h after resuscitation
  NDS (neurological deficit score) compared with the CPR group: remarkably lower
[2]; at 2 h and 24 h after resuscitation
  Serum levels of Cr (creatinine) compared with the CPR group: remarkably reduced
[2]; at 24 h after resuscitation
  Serum level of iFABP (intestinal fatty acid-binding protein) compared with the CPR group: remarkably reduced
[3]
  Cell apoptosis of various organs (heart, brain, kidney, intestine; TUNEL) compared with the CPR group: remarkably reduced
[4]; [6]
  CBF (carotid blood flow) compared with the CPR group: obviously higher
  CPP (coronary perfusion pressure) compared with the CPR group: obviously higher
  ETCO2 (partial pressure of end-tidal carbon dioxide) compared with the CPR group: obviously higher
  rSO2 (regional cerebral oxygen saturation) compared with the CPR group: obviously higher
[4]; [7]
  Dosage of adrenaline compared with the CPR group: decreased
  Duration of cardiopulmonary resuscitation compared with the CPR group: shortened
  Number of defibrillation compared with the CPR group: reduced
  Rate of return of spontaneous circulation compared with the CPR group: increased
  Survival rates at 4 h and 24 h post-resuscitation compared with the CPR group: increased
[4]; pigs, 8 min cardiac arrest, sodium octanoate 28.5 mg/kg intravenously at start of CPR, n=8, P<0.05 vs CPR group
  Duration of cardiopulmonary resuscitation: 8.00 ± 0.00 min
[4]; [8]
  Dosage of adrenaline: 1.59 ± 0.08 mg
  Number of defibrillation: 1.00 ± 0.00 n
[4]; [9]
  4-h survival: 8/8^#
  24-h survival: 8/8^#
  Return of spontaneous circulation: 8/8^#
[5]; [10]
  GEF (global ejection fraction) compared with the CPR group: obviously higher
  SV (stroke volume) compared with the CPR group: obviously higher
[5]; starting 4 h after resuscitation
  Serum level of cTnI (cardiac troponin I) compared with the CPR group: markedly lower
